Test results taken from PubChem BioAssay (NCI).
Several values for one entry are separate records, joined by “and”; a condition that tells them apart may be missing. Equal entries are not always repeated.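 In this assay, cells in 96-well plates receive the compound at five concentrations for 48 hours. Endpoints are linearly interpolated between the surrounding concentrations. The concentration for 50% growth inhibition is given as GI50. TGI denotes the concentration required for complete inhibition of growth.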

What was measured:
Assay in all cases: NCI tumour cell line growth inhibition, 48 h
M19-MEL melanoma = tested on: M19-MEL melanoma
LOX IMVI melanoma = tested on: LOX IMVI melanoma
RPMI-8226 leukemia = tested on: RPMI-8226 leukemia
A498 renal = tested on: A498 renal
RXF 393 renal = tested on: RXF 393 renal
DMS 273 small cell lung = tested on: DMS 273 small cell lung
DMS 114 small cell lung = tested on: DMS 114 small cell lung
OVCAR-3 ovarian = tested on: OVCAR-3 ovarian
SK-OV-3 ovarian = tested on: SK-OV-3 ovarian
MALME-3M melanoma = tested on: MALME-3M melanoma
NCI-H23 lung = tested on: NCI-H23 lung
HOP-18 NSCLC = tested on: HOP-18 NSCLC
LXFL 529 NSCLC = tested on: LXFL 529 NSCLC
NCI-H522 lung = tested on: NCI-H522 lung
UACC-257 melanoma = tested on: UACC-257 melanoma
SNB-78 CNS = tested on: SNB-78 CNS
NCI-H460 lung = tested on: NCI-H460 lung
SK-MEL-28 melanoma = tested on: SK-MEL-28 melanoma
COLO 205 colon = tested on: COLO 205 colon
HOP-92 NSCLC = tested on: HOP-92 NSCLC
A549 NSCLC = tested on: A549 NSCLC
SK-MEL-5 melanoma = tested on: SK-MEL-5 melanoma
SF-295 CNS = tested on: SF-295 CNS
SK-MEL-2 melanoma = tested on: SK-MEL-2 melanoma
OVCAR-5 ovarian = tested on: OVCAR-5 ovarian
K-562 leukemia = tested on: K-562 leukemia
SNB-19 CNS = tested on: SNB-19 CNS
TK-10 renal = tested on: TK-10 renal
SN12K1 renal = tested on: SN12K1 renal
SN12C renal = tested on: SN12C renal
SW-620 colon = tested on: SW-620 colon
CCRF-CEM leukemia = tested on: CCRF-CEM leukemia
MOLT-4 leukemia = tested on: MOLT-4 leukemia
SNB-75 CNS = tested on: SNB-75 CNS
SR leukemia = tested on: SR leukemia
P388/ADR leukemia = tested on: P388/ADR leukemia
DLD-1 colon = tested on: DLD-1 colon
NCI-H226 lung = tested on: NCI-H226 lung
UACC-62 melanoma = tested on: UACC-62 melanoma
HCT-15 colon = tested on: HCT-15 colon
HL-60(TB) leukemia = tested on: HL-60(TB) leukemia
MCF7 breast = tested on: MCF7 breast
HT29 colon = tested on: HT29 colon
U251 CNS = tested on: U251 CNS
EKVX NSCLC = tested on: EKVX NSCLC
KM12 colon = tested on: KM12 colon
HCT-116 colon = tested on: HCT-116 colon
XF 498 CNS = tested on: XF 498 CNS
P388 leukemia = tested on: P388 leukemia
OVCAR-4 ovarian = tested on: OVCAR-4 ovarian
M14 melanoma = tested on: M14 melanoma
SF-539 CNS = tested on: SF-539 CNS
SF-268 CNS = tested on: SF-268 CNS
UO-31 renal = tested on: UO-31 renal
HCC-2998 colon = tested on: HCC-2998 colon
CAKI-1 renal = tested on: CAKI-1 renal
KM20L2 colon = tested on: KM20L2 colon
OVCAR-8 ovarian = tested on: OVCAR-8 ovarian
ACHN renal = tested on: ACHN renal
IGROV1 ovarian = tested on: IGROV1 ovarian
NCI/ADR-RES ovarian = tested on: NCI/ADR-RES ovarian
HOP-62 NSCLC = tested on: HOP-62 NSCLC
786-0 renal = tested on: 786-0 renal

C[n+]1ccc(Nc2ccc(NC(=O)c3ccc(Nc4cc[n+](C)c5ccc([N+](=O)[O-])cc45)cc3[N+](=O)[O-])cc2)cc1
TGI (M19-MEL melanoma): 68 µM and 61 µM | TGI (LOX IMVI melanoma): > 100 µM | TGI (RPMI-8226 leukemia): > 100 µM | TGI (A498 renal): > 94.1 µM | TGI (RXF 393 renal): > 100 µM | TGI (DMS 273 small cell lung): > 100 µM | TGI (DMS 114 small cell lung): 27.2 µM and 41.5 µM | TGI (OVCAR-3 ovarian): 54.6 µM and 54.3 µM | TGI (SK-OV-3 ovarian): > 100 µM | TGI (MALME-3M melanoma): 61.2 µM and 53.9 µM | TGI (NCI-H23 lung): > 100 µM | TGI (HOP-18 NSCLC): 50.4 µM and 59.5 µM | TGI (LXFL 529 NSCLC): 50.8 µM | TGI (NCI-H522 lung): > 100 µM | TGI (UACC-257 melanoma): > 100 µM | GI50 (SNB-78 CNS): 42.3 µM and > 100 µM | TGI (SNB-78 CNS): > 100 µM | TGI (NCI-H460 lung): > 100 µM | TGI (SK-MEL-28 melanoma): 74.1 µM and 62.2 µM | TGI (COLO 205 colon): > 100 µM | TGI (HOP-92 NSCLC): 81.7 µM and > 77.1 µM | TGI (A549 NSCLC): > 100 µM | TGI (SK-MEL-5 melanoma): 70.4 µM and > 70.4 µM | TGI (SF-295 CNS): 63.6 µM and 60 µM | TGI (SK-MEL-2 melanoma): > 100 µM | TGI (OVCAR-5 ovarian): > 100 µM | TGI (K-562 leukemia): > 77.6 µM | TGI (SNB-19 CNS): > 100 µM | TGI (TK-10 renal): > 100 µM | TGI (SN12K1 renal): > 100 µM | TGI (SN12C renal): > 100 µM | TGI (SW-620 colon): > 100 µM | TGI (CCRF-CEM leukemia): > 100 µM | TGI (MOLT-4 leukemia): > 100 µM | TGI (SNB-75 CNS): > 100 µM | TGI (SR leukemia): > 100 µM | GI50 (P388/ADR leukemia): 32.9 µM and 12 µM | TGI (P388/ADR leukemia): > 54.2 µM and 17.2 µM | TGI (DLD-1 colon): > 100 µM | TGI (NCI-H226 lung): 99.7 µM and > 100 µM | TGI (UACC-62 melanoma): > 90.4 µM and 63.6 µM | TGI (HCT-15 colon): > 100 µM | GI50 (HL-60(TB) leukemia): 4.7 µM and 10.3 µM | TGI (HL-60(TB) leukemia): > 47.7 µM and 69.9 µM | GI50 (MCF7 breast): 1.25 µM and 3.34 µM | TGI (MCF7 breast): > 58.3 µM | TGI (HT29 colon): > 100 µM | TGI (U251 CNS): > 84.6 µM | TGI (EKVX NSCLC): > 92.6 µM | TGI (KM12 colon): > 100 µM | TGI (HCT-116 colon): > 100 µM | TGI (XF 498 CNS): 66.9 µM and > 63.2 µM | TGI (P388 leukemia): > 35.1 µM | TGI (OVCAR-4 ovarian): > 100 µM | TGI (M14 melanoma): > 100 µM | TGI (SF-539 CNS): 68.5 µM and > 66.7 µM | TGI (SF-268 CNS): > 100 µM | TGI (UO-31 renal): 98.9 µM and > 79.4 µM | TGI (HCC-2998 colon): > 100 µM | TGI (CAKI-1 renal): > 100 µM | TGI (KM20L2 colon): > 100 µM | TGI (OVCAR-8 ovarian): > 100 µM | TGI (ACHN renal): > 100 µM | TGI (IGROV1 ovarian): > 100 µM | TGI (NCI/ADR-RES ovarian): > 100 µM | TGI (HOP-62 NSCLC): 84.9 µM and > 100 µM | TGI (786-0 renal): 77.4 µM
